Read-outs that look alike come from different tables or passages of the source.
Columns and labels:
[1] = tested on: inflammation of the ear in the mouse; experiment: Local anti-inflammatory activity, croton oil ear inflammation (method derived from Tonelli); type: in vivo; conditions: for Anti-inflammatory activity EC50: mouse ear, croton oil, concentration giving 50% reduction in inflammation vs controls; for Anti-inflammatory activity: Activity/ref. 21 act. hydro: relative to hydrocortisone-21-acetate = 1
Experimental: I.1. Local anti-inflammatory activity
This study was carried out in accordance with a method derived from that of Tonelli (Endocrinology, Vol. 77, page 625, 1965).
The test consists of causing inflammation of the ear in the mouse using a croton oil-based irritating solution.
The addition of a local anti-inflammatory substance to this solution leads to a reduced inflammation action compared with that of the controls, i.e. treated with the irritating solution only.
The results of the study are expressed in EC50, which is the p/v % concentration of the dissolved product able to bring about a 50% reduction in the inflammation compared with that caused in the controls.

[2] = Systemic (thymolytic) activity, thymus weight reduction after oral administration; type: in vivo, rat (Wistar); conditions: rat
Experimental: (§1) Determination of systemic activity side effects
(§2) These effects were evaluated by means of their thymolytic activity.
(§3) The repeated administration of systemic activity products leads to a weakening of the defence systems of the organism. More especially in young animals, this leads to a reduction in the weight of two organs of the reticuloendothelial system, namely the spleen and the thymus, the latter being the most sensitive to this effect.
(§4) This activity was determined by means of a study of the activity of products on the weight reduction of the thymus of animals.
(§5) The product to be studied, suspended in 5% p/v gum arabic were orally administered daily for four consecutive days to young rats of the Wistar strain. Under the same conditions, a control batch of animals received an identical volume of the excipient.
(§6) 96 hours after the first administration, the animals were killed and their thymus removed and immediately weighed.
(§7) The results of the study are expressed in ED50, which corresponds to the daily dose in milligrams able to bring about a 50% thymus weight reduction for 1 kilogram animal weight, compared with the controls (mg/kg^-1 /day^-1).

thymus weight = experiment: as above; type: in vivo, rat (Wistar)
Experimental: as §1, §2, §3, §4, §5, §6, §7

[3] = Dissociation ratio R local anti-inflammatory activity / systemic activity; type: in vivo, mouse (ear inflammation) and rat (thymus); conditions: lower value = greater dissociation of activities
Experimental: The results obtained by this study make it possible to calculate the activity ratio:
local anti-inflammatory activity
The value of this ratio indicates the dissociation of the activities and is inversely proportional to the size of the dissociation, i.e. the lower this value, the greater the dissociation.
This value was calculated on the basis of the expression: [formula]

erythema = conditions: reported by O. J. Lorenzetti; cited from earlier work
granuloma = conditions: according to N. Bodor; cited from earlier work
[4] = young Wistar rats, oral, daily for four consecutive days, 50% thymus weight reduction vs controls, read-out: Systemic activity ED50
[5] = relative to hydrocortisone-21-acetate = 1

## CCCCC(=O)O[C@]1(C(=O)CSC(C)=O)CC[C@H]2[C@@H]3C[C@H](C)C4=CC(=O)C=C[C@]4(C)[C@H]3[C@@H](O)C[C@@]21C [6-α-methylprednisolone-21-thioacetate-17-valerate]
[1]
  Anti-inflammatory activity EC50: 0.5 % p/v
  Anti-inflammatory activity: Activity/ref. 21 act. hydro: 0.6
[2]; in vivo, po
  ED50 at 96 h: 43 mg/kg
Thymus weight; rat, in vivo, 5760 min
  Systemic activity: Activity/ref. 21 act. hydro: 0.325
[3]
  R (local anti-inflammatory activity / systemic activity): 116.3

## CCCC(=O)O[C@]1(C(=O)CSC(C)=O)CC[C@H]2[C@@H]3CCC4=CC(=O)CC[C@]4(C)[C@H]3[C@@H](O)C[C@@]21C [Example 1, 3,20-dione-11β-hydroxypregn-4-ene-21-thioacetate-17-butyrate]
[1]
  Anti-inflammatory activity EC50: 0.0082 % p/v
  Anti-inflammatory activity: Activity/ref. 21 act. hydro: 36.6
[2]; in vivo, po
  ED50 at 96 h: 350 mg/kg
Thymus weight; rat, in vivo, 5760 min
  Systemic activity: Activity/ref. 21 act. hydro: 0.04
Thymus weight; rat, in vivo, po, 5760 min
  systemic activity, times lower than that of prednisolone-21-thioacetate-17-valerate: 6 times
[3]
  R (local anti-inflammatory activity / systemic activity): 0.23

## CCCC(=O)O[C@]1(C(=O)CSC(=O)CC)CC[C@H]2[C@@H]3CCC4=CC(=O)CC[C@]4(C)[C@H]3[C@@H](O)C[C@@]21C [Example 2, 3,20-dione-11β-hydroxypregn-4-ene-21-thiopropionate-17-butyrate]
[1]
  Anti-inflammatory activity EC50: 0.021 % p/v
  Anti-inflammatory activity: Activity/ref. 21 act. hydro: 14.3
[2]; in vivo, po
  ED50 at 96 h: > 1450 mg/kg
Thymus weight; rat, in vivo, 5760 min
  Systemic activity: Activity/ref. 21 act. hydro: < 0.0096
[3]
  R (local anti-inflammatory activity / systemic activity): 0.14

## CCCC(=O)O[C@]1(C(=O)COC(=O)CC)CC[C@H]2[C@@H]3CCC4=CC(=O)CC[C@]4(C)[C@H]3[C@@H](O)C[C@@]21C [Hydrocortisone-21-propionate-17-butyrate, hydrocortisone-21-propionate-17-butyrate]
[1]
  Anti-inflammatory activity EC50: 0.0047 % p/v
  Anti-inflammatory activity: Activity/ref. 21 act. hydro: 63.8
[2]; [4]
  ED50 at 96 h: 7.2 mg/kg
Thymus weight; [5]
  Systemic activity: Activity/ref. 21 act. hydro: 1.95
[3]
  R (local anti-inflammatory activity / systemic activity): 6.52

## CC(C)(C)C(=O)SCC(=O)[C@@]1(O)CC[C@H]2[C@@H]3CCC4=CC(=O)CC[C@]4(C)[C@H]3[C@@H](O)C[C@@]21C [Hydrocortisone-21-thiopivalate, hydrocortisone-21-thiopivalate]
[1]
  Anti-inflammatory activity EC50: 2.5 % p/v
  Anti-inflammatory activity: Activity/ref. 21 act. hydro: 0.12
[2]; in vivo, young Wistar rats, oral, daily for four consecutive days, 50% thymus weight reduction vs controls, read-out: Systemic activity ED50
  ED50 at 96 h: 3600 mg/kg
Thymus weight; [5]
  Systemic activity: Activity/ref. 21 act. hydro: 0.0038
[3]
  R (local anti-inflammatory activity / systemic activity): 6.90

## CCCCC(=O)O[C@]1(C(=O)COC(C)=O)CC[C@H]2[C@@H]3CCC4=CC(=O)C=C[C@]4(C)[C@H]3[C@@H](O)C[C@@]21C [Prednisolone-21-acetate-17-valerate, prednisolone-21-acetate-17-valerate]
[1]
  Anti-inflammatory activity EC50: 0.0018 % p/v
  Anti-inflammatory activity: Activity/ref. 21 act. hydro: 167
[2]; in vivo, po
  ED50 at 96 h: 9 mg/kg
Thymus weight; rat, in vivo, 5760 min
  Systemic activity: Activity/ref. 21 act. hydro: 1.60
[3]
  R (local anti-inflammatory activity / systemic activity): 2.0

## CCCCC(=O)O[C@]1(C(=O)CSC(C)=O)CC[C@H]2[C@@H]3CCC4=CC(=O)C=C[C@]4(C)[C@H]3[C@@H](O)C[C@@]21C [Prednisolone-21-thioacetate-17-valerate]
[1]
  Anti-inflammatory activity EC50: 0.008 % p/v
  Anti-inflammatory activity: Activity/ref. 21 act. hydro: 37.5
[2]; in vivo, po
  ED50 at 96 h: 58 mg/kg
Thymus weight; rat, in vivo, 5760 min
  Systemic activity: Activity/ref. 21 act. hydro: 0.24
[3]
  R (local anti-inflammatory activity / systemic activity): 1.38

## CCC(=O)O[C@]1(C(=O)CSC(=O)CC)[C@@H](C)C[C@H]2[C@@H]3CCC4=CC(=O)C=C[C@]4(C)[C@@]3(Cl)[C@@H](O)C[C@@]21C [beclomethasone-21-thiopropionate-17-propionate]
[1]
  Anti-inflammatory activity EC50: 0.0175 % p/v
  Anti-inflammatory activity: Activity/ref. 21 act. hydro: 17.1
[2]; in vivo, po
  ED50 at 96 h: 19 mg/kg
Thymus weight; rat, in vivo, 5760 min
  Systemic activity: Activity/ref. 21 act. hydro: 0.74
[3]
  R (local anti-inflammatory activity / systemic activity): 9.21

## CCC(=O)O[C@]1(C(=O)CSC(C)=O)[C@@H](C)C[C@H]2[C@@H]3CCC4=CC(=O)C=C[C@]4(C)[C@@]3(F)[C@@H](O)C[C@@]21C [betamethasone-21-thioacetate-17-propionate]
[1]
  Anti-inflammatory activity EC50: 0.010 % p/v
  Anti-inflammatory activity: Activity/ref. 21 act. hydro: 30.0
[2]; in vivo, po
  ED50 at 96 h: 2.5 mg/kg
Thymus weight; rat, in vivo, 5760 min
  Systemic activity: Activity/ref. 21 act. hydro: 5.60
[3]
  R (local anti-inflammatory activity / systemic activity): 40.0

## CCC(=O)SCC(=O)[C@@]1(OC(C)=O)[C@@H](C)C[C@H]2[C@@H]3CCC4=CC(=O)C=C[C@]4(C)[C@@]3(F)[C@@H](O)C[C@@]21C [betamethasone-21-thiopropionate-17-acetate]
[1]
  Anti-inflammatory activity EC50: 0.012 % p/v
  Anti-inflammatory activity: Activity/ref. 21 act. hydro: 25.0
[2]; in vivo, po
  ED50 at 96 h: 2.4 mg/kg
Thymus weight; rat, in vivo, 5760 min
  Systemic activity: Activity/ref. 21 act. hydro: 5.83
[3]
  R (local anti-inflammatory activity / systemic activity): 50.0

## CCC(=O)O[C@]1(C(=O)CSC(=O)CC)[C@@H](C)C[C@H]2[C@@H]3CCC4=CC(=O)C=C[C@]4(C)[C@@]3(F)[C@@H](O)C[C@@]21C [betamethasone-21-thiopropionate-17-propionate]
[1]
  Anti-inflammatory activity EC50: 0.0013 % p/v
  Anti-inflammatory activity: Activity/ref. 21 act. hydro: 231
[2]; in vivo, po
  ED50 at 96 h: 3 mg/kg
Thymus weight; rat, in vivo, 5760 min
  Systemic activity: Activity/ref. 21 act. hydro: 4.66
[3]
  R (local anti-inflammatory activity / systemic activity): 4.33

## CC(=O)O[C@]1(C(=O)CSC(=O)CC(C)(C)C)[C@H](C)C[C@H]2[C@@H]3CCC4=CC(=O)C=C[C@]4(C)[C@@]3(F)[C@@H](O)C[C@@]21C [dexamethasone-21-thiotertiobutylacetate-17-acetate]
[1]
  Anti-inflammatory activity EC50: 0.0092 % p/v
  Anti-inflammatory activity: Activity/ref. 21 act. hydro: 32.6
[2]; in vivo, po
  ED50 at 96 h: 3 mg/kg
Thymus weight; rat, in vivo, 5760 min
  Systemic activity: Activity/ref. 21 act. hydro: 4.67
[3]
  R (local anti-inflammatory activity / systemic activity): 30.7

## CCCC(=O)O[C@]1(C(=O)CO)CC[C@H]2[C@@H]3CCC4=CC(=O)CC[C@]4(C)[C@H]3[C@@H](O)C[C@@]21C [hydrocortisone-17-butyrate]
erythema
  activity in the erythema test compared with the vasoconstriction test: good similarity of activity compared with the vasoconstriction test
granuloma
  activity in the granuloma test: only has a limited activity in the granuloma test

## CC(=O)OCC(=O)[C@@]1(O)CC[C@H]2[C@@H]3CCC4=CC(=O)CC[C@]4(C)[C@H]3[C@@H](O)C[C@@]21C [hydrocortisone-21-acetate]
[1]
  Anti-inflammatory activity EC50: 0.30 % p/v
  Anti-inflammatory activity: Activity/ref. 21 act. hydro: 1
[2]; [4]
  ED50 at 96 h: 14 mg/kg
Thymus weight; [5]
  Systemic activity: Activity/ref. 21 act. hydro: 1
[3]
  R (local anti-inflammatory activity / systemic activity): 214

From patent publication US5021408A, “Hydrocortisone-17-oxo-21-thioesters, their preparation and their uses as medicaments” (Jouveinal S.A., priority 1983, dated 1991)
